Experimental data published in patent publication US10570156B2, “Substituted imidazo[1,2-a]pyridines as PDE-10 inhibitors” (SUNOVION PHARMACEUTICALS INC., priority 2011, dated 2020).

Target: recombinant human PDE-10 enzyme (Homo sapiens (Human), UniProt Q9Y233)
Test: human PDE-10 inhibition assay (IMAP PDE Fluorescence Polarization enzyme assay)
Format: biochemical
Details: Fluorescein-labeled cAMP/cGMP substrate, 40-minute incubation at 37° C.
Description: In one embodiment, the compounds provided herein were assayed for their ability to inhibit human PDE-10A. In one embodiment, the activities of the compounds were determined using the Molecular Devices IMAP PDE Fluorescence Polarization assay using recombinant human PDE-10 enzyme expressed in a baculoviral system. Briefly, 10 μL of a compound (0.2 nM-20 μM) was added to either a 96-well half area black plate or a 384-well black plate along with 10 μL of Fluorescein-labeled cAMP/cGMP substrate as per manufacturer's instructions and 10 μL of PDE enzyme (activity 0.1 U). Following a 40-minute incubation at 37° C., 60 μL of IMAP binding reagent was added. The plate was then read on a Perkin Elmer Victor (480-535 nm). The data was analyzed using Prism Software (GraphPad Inc, San Diego, Calif.).

Sequence of recombinant human PDE-10 enzyme (Q9Y233 whole entry): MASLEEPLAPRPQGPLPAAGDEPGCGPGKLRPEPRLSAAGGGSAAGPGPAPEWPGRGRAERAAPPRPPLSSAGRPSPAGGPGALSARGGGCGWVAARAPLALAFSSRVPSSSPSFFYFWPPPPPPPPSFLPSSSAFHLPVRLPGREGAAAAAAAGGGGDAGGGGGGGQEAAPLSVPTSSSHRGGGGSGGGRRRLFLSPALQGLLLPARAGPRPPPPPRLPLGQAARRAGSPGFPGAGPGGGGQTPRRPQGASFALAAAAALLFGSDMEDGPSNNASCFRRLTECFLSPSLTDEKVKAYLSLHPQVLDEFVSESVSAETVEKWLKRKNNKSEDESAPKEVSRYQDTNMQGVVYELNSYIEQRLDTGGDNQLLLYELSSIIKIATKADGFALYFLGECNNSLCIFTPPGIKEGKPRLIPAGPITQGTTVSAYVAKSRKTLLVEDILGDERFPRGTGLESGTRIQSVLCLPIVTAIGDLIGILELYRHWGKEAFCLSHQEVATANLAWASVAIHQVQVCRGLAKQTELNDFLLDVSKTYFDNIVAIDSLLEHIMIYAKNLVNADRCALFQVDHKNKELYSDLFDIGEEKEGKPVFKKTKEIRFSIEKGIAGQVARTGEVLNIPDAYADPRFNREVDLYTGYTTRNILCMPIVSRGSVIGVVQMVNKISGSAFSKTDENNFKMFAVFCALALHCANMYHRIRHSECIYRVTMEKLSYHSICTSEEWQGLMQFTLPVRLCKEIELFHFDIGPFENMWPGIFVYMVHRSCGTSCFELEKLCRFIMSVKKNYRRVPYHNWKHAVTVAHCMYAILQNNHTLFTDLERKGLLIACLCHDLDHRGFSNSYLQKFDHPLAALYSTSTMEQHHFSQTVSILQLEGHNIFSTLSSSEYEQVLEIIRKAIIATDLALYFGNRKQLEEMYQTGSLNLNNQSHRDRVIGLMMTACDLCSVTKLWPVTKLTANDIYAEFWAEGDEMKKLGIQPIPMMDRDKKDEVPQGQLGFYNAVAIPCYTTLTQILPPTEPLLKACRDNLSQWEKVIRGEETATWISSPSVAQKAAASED

Cc1ncc(C)n2nc(CCc3nc4c(C)ncc(C)n4n3)nc12 [Compound 2]
IC50: > 500 nM
